Columns and labels:
[1] = tested on: K. pneumoniae ATCC 10031 (SEN) and K. pneumoniae ATCC 700603 (MDR); assay: Adaptive laboratory evolution (ALE), relative MIC of evolved lines; format: cell-based, Klebsiella pneumoniae
Source text: (§1) Using the same set of bacterial strains, we initiated adaptive laboratory evolution with the aim to maximize the level of antibiotic resistance in the populations achieved during a longer, but fixed time period.
(§2) An established protocol for adaptive laboratory evolution[46],[73] was followed to propagate populations with the highest resistance levels. Starting with an antibiotic concentration that caused approximately 50% growth inhibition, ten parallel populations for each antibiotic-ancestor strain combination were grown for 72 hours at 37 °C with continuous shaking (300 RPM). MHB broth medium was used unless stated otherwise. After each incubation, 20 µl of each culture was transferred to four new wells containing fresh medium with increasing antibiotic concentrations (0.5×, 1×, 1.5×, and 2.5× the previous concentration) in a chessboard layout to monitor potential cross-contamination. Growth was monitored by measuring OD600 using a Biotek Synergy 2 microplate reader, and only populations grown in the highest drug concentration with an OD600 > 0.2 were transferred further.
(§3) A robotic liquid handling system was used to automatically prepare a 11 to 16-step serial dilution in 384-well microtiter plates (Greiner). A final concentration of 5 × 10^5 bacterial cells per mL were inoculated into each well containing 60 µL MHB medium. Bacterial cultures were incubated at 37 °C with continuous shaking (Infors shaker, 900 rpm with 3 mm throw) for 18 hours (2 replicates from each). Cell growth was monitored by measuring the optical density (OD600 values, using Biotek Synergy microplate reader). MIC was defined as the antibiotic concentration of complete growth inhibition (i.e., OD600 < 0.05). Relative MIC was calculated as follows:1 relativeMIC=MICevolved/MICancestor […]
(§4) Supplementary Figure 4. Resistance levels following adaptive laboratory evolution across bacterial strains. The level of resistance was measured as the fold change in relative MIC between evolved and ancestral strains after ~60 days of adaptive laboratory evolution. Data are grouped by bacterial strain (A. baumannii (AB), E. coli (EC), K. pneumoniae (KP), and P. aeruginosa (PA)) and categorized as either multidrug-resistant (MDR) or sensitive (SEN). Each data point represents a laboratory evolved line, and boxplots show the median, first and third quartiles, with whiskers indicating the 5th and 95th percentiles.
(§5) Statistical analysis was performed using two-sided Dunn’s post-hoc test with Benjamini-Hochberg correction for multiple comparisons (****/ ***/ **/ * indicates p < 0.0001/ 0.001/ 0.01/ 0.05). For detailed information on antibiotic and bacterial species, see Supplementary Table 1. For mode of action groups, refer to Table 1. Source data are provided as a Source Data file.

[2] = tested on: A. baumannii ATCC 17978 (SEN) and A. baumannii ATCC BAA-1605 (MDR); assay: as above; format: cell-based, Acinetobacter baumannii; settings: for Relative MIC (log10): AB-SEN (Acinetobacter baumannii ATCC 17978)
Source text: as §1, §2, §3, §4, §5

## CN[C@@H]1[C@@H](O[C@H]2O[C@H](CO)[C@@H](N)[C@H](O)[C@H]2O)OC2C[C@@H](N)[C@@H](O[C@H]3[C@H](O)[C@@H](O)[C@H](N)C[C@@H]3N)OC2[C@@H]1O (stereo partly drawn) [Apramycin]
[1]; KP-MDR (ATCC 700603), evolved line 1, MIC of evolved line / MIC of ancestor
  Relative MIC: 8
[1]; KP-MDR (ATCC 700603), evolved line 2, MIC of evolved line / MIC of ancestor
  Relative MIC: 16
[1]; KP-MDR (ATCC 700603), evolved line 3, MIC of evolved line / MIC of ancestor
  Relative MIC: 16
[1]; KP-MDR (ATCC 700603), evolved line 4, MIC of evolved line / MIC of ancestor
  Relative MIC: 4
[1]; KP-MDR (ATCC 700603), evolved line 5, MIC of evolved line / MIC of ancestor
  Relative MIC: 16
[1]; KP-MDR (ATCC 700603), evolved line 6, MIC of evolved line / MIC of ancestor
  Relative MIC: 8
[1]; KP-MDR (ATCC 700603), evolved line 7, MIC of evolved line / MIC of ancestor
  Relative MIC: 4
[1]; KP-MDR (ATCC 700603), evolved line 8, MIC of evolved line / MIC of ancestor
  Relative MIC: 8
[1]; KP-MDR (ATCC 700603), evolved line 9, MIC of evolved line / MIC of ancestor
  Relative MIC: 16
[1]; KP-MDR (ATCC 700603), evolved line 10, MIC of evolved line / MIC of ancestor
  Relative MIC: 8
[1]; KP-MDR (Klebsiella pneumoniae ATCC 700603), evolved line 1 adapted to the named antibiotic
  Relative MIC (log10): 0.9031
[1]; KP-MDR (Klebsiella pneumoniae ATCC 700603), evolved line 2 adapted to the named antibiotic
  Relative MIC (log10): 1.204
[1]; KP-MDR (Klebsiella pneumoniae ATCC 700603), evolved line 3 adapted to the named antibiotic
  Relative MIC (log10): 1.204
[1]; KP-MDR (Klebsiella pneumoniae ATCC 700603), evolved line 8 adapted to the named antibiotic
  Relative MIC (log10): 0.9031
[1]; KP-MDR (Klebsiella pneumoniae ATCC 700603), evolved line 9 adapted to the named antibiotic
  Relative MIC (log10): 1.204
[1]; KP-SEN (ATCC 10031), evolved line 2, MIC of evolved line / MIC of ancestor
  Relative MIC: 64
[1]; KP-SEN (ATCC 10031), evolved line 3, MIC of evolved line / MIC of ancestor
  Relative MIC: 32
[1]; KP-SEN (ATCC 10031), evolved line 5, MIC of evolved line / MIC of ancestor
  Relative MIC: 64
[1]; KP-SEN (ATCC 10031), evolved line 6, MIC of evolved line / MIC of ancestor
  Relative MIC: 64
[1]; KP-SEN (ATCC 10031), evolved line 8, MIC of evolved line / MIC of ancestor
  Relative MIC: 64
[1]; KP-SEN (ATCC 10031), evolved line 9, MIC of evolved line / MIC of ancestor
  Relative MIC: 64
[1]; KP-SEN (ATCC 10031), evolved line 10, MIC of evolved line / MIC of ancestor
  Relative MIC: 128
[1]; KP-SEN (Klebsiella pneumoniae ATCC 10031), evolved line 2 adapted to the named antibiotic
  Relative MIC (log10): 1.806
[1]; KP-SEN (Klebsiella pneumoniae ATCC 10031), evolved line 5 adapted to the named antibiotic
  Relative MIC (log10): 1.806
[1]; KP-SEN (Klebsiella pneumoniae ATCC 10031), evolved line 6 adapted to the named antibiotic
  Relative MIC (log10): 1.806
[1]; KP-SEN (Klebsiella pneumoniae ATCC 10031), evolved line 8 adapted to the named antibiotic
  Relative MIC (log10): 1.806
[1]; KP-SEN (Klebsiella pneumoniae ATCC 10031), evolved line 10 adapted to the named antibiotic
  Relative MIC (log10): 2.107
[1]; Klebsiella pneumoniae ATCC 10031 (KP-SEN), evolved line 2
  Relative MIC: 64
[1]; Klebsiella pneumoniae ATCC 10031 (KP-SEN), evolved line 3
  Relative MIC: 32
[1]; Klebsiella pneumoniae ATCC 10031 (KP-SEN), evolved line 5
  Relative MIC: 64
[1]; Klebsiella pneumoniae ATCC 10031 (KP-SEN), evolved line 6
  Relative MIC: 64
[1]; Klebsiella pneumoniae ATCC 10031 (KP-SEN), evolved line 8
  Relative MIC: 64
[1]; Klebsiella pneumoniae ATCC 10031 (KP-SEN), evolved line 9
  Relative MIC: 64
[1]; Klebsiella pneumoniae ATCC 10031 (KP-SEN), evolved line 10
  Relative MIC: 128
[1]; Klebsiella pneumoniae ATCC 700603 (KP-MDR), evolved line 1
  Relative MIC: 8
[1]; Klebsiella pneumoniae ATCC 700603 (KP-MDR), evolved line 2
  Relative MIC: 16
[1]; Klebsiella pneumoniae ATCC 700603 (KP-MDR), evolved line 3
  Relative MIC: 16
[1]; Klebsiella pneumoniae ATCC 700603 (KP-MDR), evolved line 4
  Relative MIC: 4
[1]; Klebsiella pneumoniae ATCC 700603 (KP-MDR), evolved line 5
  Relative MIC: 16
[1]; Klebsiella pneumoniae ATCC 700603 (KP-MDR), evolved line 6
  Relative MIC: 8
[1]; Klebsiella pneumoniae ATCC 700603 (KP-MDR), evolved line 7
  Relative MIC: 4
[1]; Klebsiella pneumoniae ATCC 700603 (KP-MDR), evolved line 8
  Relative MIC: 8
[1]; Klebsiella pneumoniae ATCC 700603 (KP-MDR), evolved line 9
  Relative MIC: 16
[1]; Klebsiella pneumoniae ATCC 700603 (KP-MDR), evolved line 10
  Relative MIC: 8
[2]; AB-SEN (ATCC 17978), evolved line 1, MIC of evolved line / MIC of ancestor
  Relative MIC: 32
[2]; AB-SEN (ATCC 17978), evolved line 2, MIC of evolved line / MIC of ancestor
  Relative MIC: 64
[2]; AB-SEN (ATCC 17978), evolved line 3, MIC of evolved line / MIC of ancestor
  Relative MIC: 32
[2]; AB-SEN (ATCC 17978), evolved line 4, MIC of evolved line / MIC of ancestor
  Relative MIC: 16
[2]; AB-SEN (ATCC 17978), evolved line 5, MIC of evolved line / MIC of ancestor
  Relative MIC: 32
[2]; AB-SEN (ATCC 17978), evolved line 6, MIC of evolved line / MIC of ancestor
  Relative MIC: 16
[2]; AB-SEN (ATCC 17978), evolved line 7, MIC of evolved line / MIC of ancestor
  Relative MIC: 64
[2]; AB-SEN (ATCC 17978), evolved line 8, MIC of evolved line / MIC of ancestor
  Relative MIC: 32
[2]; AB-SEN (ATCC 17978), evolved line 9, MIC of evolved line / MIC of ancestor
  Relative MIC: 32
[2]; AB-SEN (ATCC 17978), evolved line 10, MIC of evolved line / MIC of ancestor
  Relative MIC: 32
[2]; evolved line 2 adapted to the named antibiotic
  Relative MIC (log10): 1.806
[2]; evolved line 3 adapted to the named antibiotic
  Relative MIC (log10): 1.505
[2]; evolved line 6 adapted to the named antibiotic
  Relative MIC (log10): 1.204
[2]; evolved line 9 adapted to the named antibiotic
  Relative MIC (log10): 1.505
[2]; evolved line 10 adapted to the named antibiotic
  Relative MIC (log10): 1.505
[2]; Acinetobacter baumannii ATCC 17978 (AB-SEN), evolved line 1
  Relative MIC: 32
[2]; Acinetobacter baumannii ATCC 17978 (AB-SEN), evolved line 2
  Relative MIC: 64
[2]; Acinetobacter baumannii ATCC 17978 (AB-SEN), evolved line 3
  Relative MIC: 32
[2]; Acinetobacter baumannii ATCC 17978 (AB-SEN), evolved line 4
  Relative MIC: 16
[2]; Acinetobacter baumannii ATCC 17978 (AB-SEN), evolved line 5
  Relative MIC: 32
[2]; Acinetobacter baumannii ATCC 17978 (AB-SEN), evolved line 6
  Relative MIC: 16
[2]; Acinetobacter baumannii ATCC 17978 (AB-SEN), evolved line 7
  Relative MIC: 64
[2]; Acinetobacter baumannii ATCC 17978 (AB-SEN), evolved line 8
  Relative MIC: 32
[2]; Acinetobacter baumannii ATCC 17978 (AB-SEN), evolved line 9
  Relative MIC: 32
[2]; Acinetobacter baumannii ATCC 17978 (AB-SEN), evolved line 10
  Relative MIC: 32
